Data reported in ChEMBL document CHEMBL3430912, “GSK Tres Cantos Anti-Kinetoplastid Screening (TCAKS) Data”.

Key:
[1] = test system: Leishmania donovani; assay: GSK_TCAKS: pIC50 Leishmania donovani viability assay using fluorescence intensity. Assay plates (1536-well) were prepared by adding 30nL per well of compound. For single shot assay, the final compound concentration was 5uM. […] Briefly, eGFP LdBOB axenic amastigotes were harvested, fixed and counted in a CASY cell counter (Roche-Applied Science). A final concentration of 1.5 * 10^5 cells per well were prepared in amastigote media containing 500 U/mL penicillin/streptomycin (Invitrogen) and 6uL was dispensed to each experimental well using a Multidrop Combi dispenser (Thermo Scientific). 6uL of assay media was dispensed to control columns used as reference for 100% compound response. Following incubation for 72 h at 37C, 5% CO2, 2 uL of resazurin was added to each well at a final concentration of 0.5 mM in phosphate buffered saline (PBS) with IGEPAL (Sigma-Aldrich), 0.05% (v/v).; type: functional, organism-based
[2] = test system: Trypanosoma brucei brucei; assay: GSK_TCAKS: pIC50 Trypanosoma brucei viability assay using luminiscence. Assay plates (1536-well) were prepared. T. brucei cultures were harvested and counted in a CASY cell counter. A parasite suspension was prepared at a final concentration of 5 * 10^4 cells/mL in complete HMI9 medium and 6uL was dispensed to all wells containing compounds using a Multidrop Combi dispenser. 6uL of HMI9 media with 0.4% DMSO were dispensed to control columns. Plates were incubated for 24 h at 37C, 5% CO2 then tempered for 10 min at room temperature. ATP content was quantified by adding 4 uL of CellTiter-Glo Reagent (Promega) according to the manufacturer's instructions. Luminescence was measured using a ViewLux.; type: functional, organism-based; conditions: Lister 427, CASY
[3] = test system: Leishmania donovani; assay: (§1) GSK_TCAKS: pIC50 Leishmania donovani Imaging: Amastigotes/Macrophages. Assay plates (384-well) were prepared by adding 250nL of compound to each well. For single shot assay, the final compound concentration was 5 uM. […] Automated image analysis was performed with a script developed on Acapella High Content Imaging and Analysis Software (PerkinElmer). Output: Average number of amastigotes per macrophage cell were reported for each well.; type: functional, organism-based, Homo sapiens; conditions: THP-1
[4] = test system: Trypanosoma cruzi; assay: GSK_TCAKS: pIC50 Trypanosoma cruzi Imaging: Amastigotes/Cell. […] Cells were then washed once with PBS before infection. T. cruzi trypomastigotes, collected at days 5 to 8 after infection from LLC-MK2 parasite infected cultures, were allowed to swim out for 4h at 37C from a centrifuged pellet (2,500 rpm/10 min/room temperature). Trypomastigotes were then collected and counted in a CASY Cell Counter. Trypomastigotes, in supplemented DMEM, were added to H9c2 cultures in a multiplicity of infection of 1 and incubated for 18 h. Cells were washed once with PBS before incubation of the infected H9c2 monolayer with trypsin (Life-Technologies) to detach cells from the flask. Cells were counted in a CASY Cell Counter using a 150 um capillary and their density set at 5 * 10^4 cells per mL in supplemented assay DMEM. Infected H9c2 were dispensed into 384-well poly-lysine coated assay plates at 50uL per well using a Multidrop Combi dispenser. After seeding them, the plates were incubated at 37C, 5% CO2 for 72h. Cultures were then fixed and stained by addition of 50 uL of a solution containing 8% formaldehyde and 4 uM DRAQ5 DNA dye (BioStatus, UK) per well. […] Five images were collected per well for reliable statistical analysis. Automated image analysis was performed with a script developed on Acapella High Content Imaging and Analysis Software (PerkinElmer). Output: number of amastigotes per cell as infection level measurement.; type: functional, organism-based, Rattus norvegicus; conditions: H9c2, 4 h
[5] = test system: Trypanosoma brucei brucei; assay: GSK_TCAKS: pIC50 Trypanosoma brucei viability assay using fluorescence intensity. Assay plates (1536-well) were prepared by dispensing 25nL of compound solution per well using an Echo acoustic dispenser (Labcyte).; type: functional, organism-based; conditions: Lister 427, 2 h
[6] = test system: Leishmania donovani; assay: as §1, with “Infected Macrophages.” for “Amastigotes/Macrophages.”, “Percent” for “Average number”, “infected” for “amastigotes per”, “cells” for “cell”; type: functional, organism-based, Homo sapiens; conditions: THP-1
[7] = test system: Trypanosoma cruzi; assay: (§2) GSK_TCAKS: pIC50 Trypanosoma cruzi Imaging: Infected Cells. […] Cells were then washed once with PBS before infection. T. cruzi trypomastigotes, collected at days 5 to 8 after infection from LLC-MK2 parasite infected cultures, were allowed to swim out for 4h at 37C from a centrifuged pellet (2,500 rpm/10 min/room temperature). Trypomastigotes were then collected and counted in a CASY Cell Counter. Trypomastigotes, in supplemented DMEM, were added to H9c2 cultures in a multiplicity of infection of 1 and incubated for 18 h. Cells were washed once with PBS before incubation of the infected H9c2 monolayer with trypsin (Life-Technologies) to detach cells from the flask. Cells were counted in a CASY Cell Counter using a 150 um capillary and their density set at 5 * 10^4 cells per mL in supplemented assay DMEM. Infected H9c2 were dispensed into 384-well poly-lysine coated assay plates at 50uL per well using a Multidrop Combi dispenser. After seeding them, the plates were incubated at 37C, 5% CO2 for 72h. Cultures were then fixed and stained by addition of 50 uL of a solution containing 8% formaldehyde and 4 uM DRAQ5 DNA dye (BioStatus, UK) per well. […] Five images were collected per well for reliable statistical analysis. Automated image analysis was performed with a script developed on Acapella High Content Imaging and Analysis Software (PerkinElmer). Output: percentage of infected cells per well as a second infection marker.; type: functional, organism-based, Rattus norvegicus; conditions: H9c2, 4 h
[8] = test system: Trypanosoma cruzi; assay: GSK_TCAKS: pIC50 Trypanosoma cruzi viability assay using beta-GAL activity. This assay was run at single shot at 5uM compound concentration per well. The biological reagents consisted of NIH-3T3 host cells and trypomastigotes parasitic cells; both cell types were set to a 3.3 * 10^5 cells/mL dilution in assay DMEM by means of a CASY cell counter device using a 60um capillary. 6 uL of the mixture were dispensed per well (about 1 * 10^3 host-cells and 1 * 10^3 parasites) with a Multidrop Combi dispenser. […] In all wells, the percentage of DMSO never exceeded 0.5%. Plates incubated for four days at 37C, 5% CO2. The substrate used for the assay fluorescence intensity (FLINT) readout was resorufin-beta-D-galactopiranoside (Sigma-Aldrich) at 5uM per well. It was diluted in PBS supplemented with the soft detergent Igepal (Fluka).; type: functional, organism-based, Mus musculus; conditions: Tulahuen, NIH3T3
[9] = target: Sterol 14-alpha demethylase (Trypanosoma cruzi (strain CL Brener), UniProt Q7Z1V1); assay: GSK_TCAKS: pIC50 CYP51 from Trypanosoma cruzi.; type: functional
[10] = test system: Leishmania donovani; assay: as §1, with “THP-1 Host Macrophages.” for “Amastigotes/Macrophages.”, “THP-1” for “Average number of amastigotes per macrophage”, “cell count” for “cell”; type: functional, organism-based, Homo sapiens
[11] = GSK_TCAKS: pIC50 HepG2 human cell line viability assay using luminiscence. […] Seeding density was checked to ensure that new mono-layers were not more than 50% confluent at the time of harvesting. Cell suspension was added to 500 mL of the same medium at a final density of 1.2 * 10^5 cells/mL. This cell suspension was dispensed (25 uL, 3000 cells per well) into 384-well clear-bottom plates using a Multidrop Combi dispenser. Prior to addition of the cell suspension, the screening compounds (250 nL) were pre-dispensed into the plates with an Echo liquid handler. Plates were incubated for 48 h at 37C, 5% CO2. After incubation, plates equilibrated at room temperature for 30 min before proceeding to develop the luminescent signal. The signal developer, CellTiter-Glo Reagent, was allowed to equilibrate at room temperature for 30 min and added to the plates (25uL per well) using a Multidrop Combi dispenser. Plates were left for 10 min at room temperature for stabilization and then read using a ViewLux.; type: toxicity, cell-based
[12] = test system: Trypanosoma cruzi; assay: as §2, with “H2C9” for “Trypanosoma cruzi”, “H9c2 Host Cardiomyocytes.” for “Infected Cells.”, “Number” for “percentage”, “H9c2 Host Cardiomyocytes nuclei to determine drug-related cytotoxicity.” for “infected cells per well as a second infection marker.”; type: functional, organism-based, Rattus norvegicus; conditions: H9c2, 4 h

Sterol 14-alpha demethylase, sequence (Q7Z1V1 whole entry): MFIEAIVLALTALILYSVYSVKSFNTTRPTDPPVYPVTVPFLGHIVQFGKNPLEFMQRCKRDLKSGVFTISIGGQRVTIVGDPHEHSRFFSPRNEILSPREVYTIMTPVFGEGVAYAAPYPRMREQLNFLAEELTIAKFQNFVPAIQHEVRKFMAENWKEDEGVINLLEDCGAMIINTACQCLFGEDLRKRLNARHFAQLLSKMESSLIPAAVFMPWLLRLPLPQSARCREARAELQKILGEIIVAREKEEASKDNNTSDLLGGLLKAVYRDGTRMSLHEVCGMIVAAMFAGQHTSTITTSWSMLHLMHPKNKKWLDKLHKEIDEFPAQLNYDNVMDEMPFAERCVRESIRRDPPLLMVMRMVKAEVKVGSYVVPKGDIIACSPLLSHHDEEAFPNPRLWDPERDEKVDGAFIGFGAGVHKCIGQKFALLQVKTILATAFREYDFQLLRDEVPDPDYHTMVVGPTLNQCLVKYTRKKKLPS

SMILES | IC50 [1] | IC50 [2] | IC50 [3] | IC50 [4] | IC50 [5] | IC50 [6] | IC50 [7] | IC50 [8] | IC50 [9] | IC50 [10] | IC50 at 48 h [11] | IC50 [12]
Cc1cnc(Nc2cc(Cc3ccccc3)nc(N[C@H]3CC[C@H](O)CC3)n2)s1 | 0.794 µM | 0.0398 µM | 0.0316 µM | 0.0501 µM | 0.0251 µM | 0.0398 µM | 0.126 µM | 0.126 µM | > 100 µM | 0.0251 µM | 25.1 µM | 0.0316 µM
O=C1NCCn2ccc(Nc3nc(N[C@H]4CC[C@H](O)CC4)ncc3Cl)c21 | 2.51 µM | 0.631 µM | 0.631 µM | 3.16 µM | 0.501 µM | 1 µM | 20 µM | 6.31 µM | > 100 µM | 0.398 µM | > 100 µM | 0.398 µM
N#Cc1cccc(CNc2ccc(-c3cnn(CC4CC4)c(=O)c3C#N)cc2)c1 | 25.1 µM | 12.6 µM | 0.251 µM | 5.01 µM | 10 µM | 1.26 µM | 7.94 µM | 5.01 µM | 6.31 µM | 6.31 µM | > 100 µM | > 50.1 µM
COc1cc(OC)cc(C(=O)N[C@@H](CC(C)C)C(=O)NC2(C#N)CC2)c1 | > 50.1 µM | 0.0631 µM | > 50.1 µM | > 50.1 µM | 0.501 µM | > 50.1 µM | > 50.1 µM | > 50.1 µM | > 100 µM | > 50.1 µM | > 100 µM | > 50.1 µM
Cc1ccc(S(C)(=O)=O)cc1Nc1nccc(-c2sc(N)nc2-c2ccccc2)n1 | 3.16 µM | 1.58 µM | 2.51 µM | 0.0794 µM | 0.794 µM | 5.01 µM | 0.126 µM | 0.126 µM | > 100 µM | 20 µM | 31.6 µM | 5.01 µM
CC(C)C[C@H](NC(=O)c1ccc(-c2ccccc2)o1)C(=O)NC1(C#N)CC1 | > 50.1 µM | 0.0501 µM | 15.8 µM | 25.1 µM | 0.1 µM | > 50.1 µM | > 50.1 µM | 31.6 µM | > 100 µM | > 50.1 µM | > 100 µM | > 50.1 µM
CCOC(=O)c1noc(N)c1-c1ccccc1 | > 50.1 µM | 0.631 µM | > 50.1 µM | > 50.1 µM | 0.631 µM | > 50.1 µM | > 50.1 µM | > 50.1 µM | > 100 µM | > 50.1 µM | > 100 µM | > 50.1 µM
CC(C)C[C@H](NC(=O)c1csc(-c2cccs2)n1)C(=O)NC1(C#N)CC1 | 5.01 µM | 0.1 µM | > 50.1 µM | 20 µM | 0.158 µM | > 50.1 µM | > 50.1 µM | 25.1 µM | > 100 µM | > 50.1 µM | > 100 µM | > 50.1 µM
CN(C)S(=O)(=O)c1ccc(-c2cnc(N)c(-c3nc4ccc(F)cc4[nH]3)c2)cc1 | 2.51 µM | 1 µM | 0.631 µM | > 50.1 µM | 0.398 µM | 1.58 µM | > 50.1 µM | 1.26 µM | 39.8 µM | 3.98 µM | > 100 µM | 1.26 µM
Nc1cc(-c2ccc3ncnc(N4CCOCC4)c3c2)cnc1N | 3.98 µM | 0.158 µM | 1.26 µM | 1.58 µM | 0.0501 µM | 10 µM | 5.01 µM | 1.58 µM | 79.4 µM | > 50.1 µM | > 100 µM | 3.16 µM
NC(=O)c1cc(NC(=O)c2ccccc2COc2ccccc2)ccc1Cl | 7.94 µM | > 39.8 µM | 1.58 µM | 25.1 µM | 15.8 µM | 3.16 µM | 31.6 µM | 39.8 µM | 79.4 µM | 15.8 µM | > 100 µM | > 50.1 µM
CC(=O)Nc1cccc(Nc2ncnc3[nH]cnc23)c1 | > 50.1 µM | 0.398 µM | 39.8 µM | 25.1 µM | 0.126 µM | > 50.1 µM | 39.8 µM | > 50.1 µM | > 100 µM | 10 µM | > 100 µM | > 50.1 µM
COc1cccc(-c2c(C)nn(-c3nc(N)nc(-c4ccccn4)n3)c2N)c1 | 5.01 µM | > 39.8 µM | 1.58 µM | 0.501 µM | > 39.8 µM | 2 µM | 2 µM | 2.51 µM | > 100 µM | > 50.1 µM | > 100 µM | > 50.1 µM
CC(C)c1nn(-c2nc(N)nc(-c3ccccn3)n2)c(N)c1C1CCCCC1 | 7.94 µM | 7.94 µM | 0.794 µM | 1.26 µM | 7.94 µM | 1 µM | 1.26 µM | 2 µM | 3.16 µM | 5.01 µM | 20 µM | 3.16 µM
Cc1nn(-c2nc(N)nc(-c3ccccn3)n2)c(C)c1Cc1ccccc1 | 5.01 µM | 6.31 µM | 2.51 µM | 2 µM | > 39.8 µM | 3.16 µM | 3.16 µM | 2.51 µM | 63.1 µM | > 50.1 µM | > 100 µM | 20 µM
Cc1occc1C(=O)Nc1ccccc1C(=O)Nc1nccs1 | > 50.1 µM | 0.501 µM | > 50.1 µM | 31.6 µM | 0.398 µM | > 50.1 µM | > 50.1 µM | > 50.1 µM | > 100 µM | > 50.1 µM | > 100 µM | > 50.1 µM
COc1cccc(CN(C)Cc2nc(N)c3c(C)c(C)sc3n2)c1 | 31.6 µM | 3.98 µM | 3.16 µM | 15.8 µM | 5.01 µM | 5.01 µM | 15.8 µM | 6.31 µM | > 100 µM | 31.6 µM | 39.8 µM | > 50.1 µM
